# From patent US20130309736A1, “COMPOSITIONS AND METHODS FOR MALATE AND FUMARATE PRODUCTION” (CARGILL, INCORPORATED, priority 2011, published 2013)
# Key:
# [1] = 15.5° C.; cited from earlier work
# [2] = tested on: yeast cells; assay: EMS mutagenesis, kill rate; assay type: cell-based; conditions: 3 μL EMS in 200 μL cell suspension (OD600 around 10), approximately one hour
# Protocol: For example, yeast cells from a fresh YP (yeast extract/peptone)+20 g/L glucose plate or liquid culture (OD600 1-4) are resuspended in sterile water to an OD600 of around 10. 200 μL aliquots of this cell suspension are pipetted into individual tubes and exposed to 3 μL […] (EMS) for approximately one hour, which kills around 65% of the cells. Higher EMS concentrations can also be used to increase the kill rate. After exposure, cells are neutralized with 5% sodium thiosulfate, washed in PBS buffer, recovered in rich media for approximately four hours, and cultured on selective media. Mock samples (no EMS) are also run to ensure that the conditions are selective. Alternatively, cell can be mutagenized using UV irradiation.
# [3] = tested on: Candida guilliermondii ATCC 20118; assay: Growth rate in YPD shake flasks (first secondary screen); assay type: cell-based
# Protocol: (§1) For the first secondary screen, growth rates were measured in YPD media containing 0 g/L malate at pH 3.0 or 200 g/L malate at pH 2.85. Shake flasks were inoculated with biomass harvested from seed flasks grown overnight to an OD600 of 6 to 10. 250 mL baffled growth rate flasks (50 mL working volume) were inoculated to an OD600 of 0.1 and grown at 250 rpm and 30° C. Samples were taken throughout the time course of the assay and analyzed for biomass growth via OD600. The resulting OD600 data was plotted and growth rates were established.
# [4] = tested on: Candida sorbosivorans CD1978; assay: as above; assay type: cell-based
# Protocol: as §1
# [5] = tested on: Candida vanderwaltii MUCL 30000; assay: as above; assay type: cell-based
# Protocol: as §1
# [6] = tested on: Issatchenkia orientalis ATCC 60585; assay: as above; assay type: cell-based
# Protocol: as §1
# [7] = tested on: Candida lambica ATCC 38617; assay: as above; assay type: cell-based
# Protocol: as §1
# (§2) The same procedures were utilized to screen, rate, and score the original 91 wild-type yeast strains from the primary screen with media containing 0, 30, 45, and 60 g/L lactic acid at pH 3.0 (˜80% free acid). Due to difficulties in properly scoring some very weak growth that occasionally occurred at 60 g/L, 20 strains were re-tested in the primary screen. Of these 20 strains, eight were eliminated due to very slow growth relative to the rest of the test group. The remaining 12 strains were advanced into secondary screening. The secondary screen for lactic acid was the same as that described above for malate, except for changes in concentrations and pH values. Growth rates were measured at 0 g/L lactic acid, pH 3.0 and 50 g/L lactic acid, pH 2.85, and glucose consumption rates were measured in the presence of 50 g/L lactic acid, pH 2.85. Normalized values and weighted and summed scores were calculated for each strain as described above for malate.
# [8] = tested on: Candida sorbosivorans ATCC 38619; assay: as above; assay type: cell-based
# Protocol: as §1, §2
# [9] = tested on: Issatchenkia orientalis ATCC 24210; assay: as above; assay type: cell-based
# Protocol: as §1, §2
# [10] = tested on: Issatchenkia orientalis ATCC PTA-6658; assay: as above; assay type: cell-based
# Protocol: as §1, §2
# [11] = tested on: Issatchenkia orientalis CD1822; assay: as above; assay type: cell-based
# Protocol: as §1, §2
# [12] = tested on: Saccharomyces bulderi ATCC MYA-404; assay: as above; assay type: cell-based
# Protocol: as §1, §2
# [13] = tested on: Candida guilliermondii ATCC 20118; assay: Glucose consumption rate in YPD shake flasks (second secondary screen); assay type: cell-based
# Protocol: (§3) For the second secondary screen, glucose consumption was measured in YPD media containing 0 g/L malate at pH 3.0 or 200 g/L malate at pH 2.85. Shake flasks were inoculated with biomass harvested from seed flasks grown overnight to an OD600 of 6 to 10. 250 mL baffled glycolytic assay flasks (50 mL working volume) were inoculated to an OD600 of 0.1 and grown at 250 RPM and 30° C. Samples were taken throughout the time course of the assay and analyzed for glucose consumption using a 2700 Biochemistry Analyzer (Yellow Springs Instruments, YSI). The resulting data was plotted and glucose consumption rates were established.
# [14] = tested on: Candida sorbosivorans CD1978; assay: as above; assay type: cell-based
# Protocol: as §3
# [15] = tested on: Candida vanderwaltii MUCL 30000; assay: as above; assay type: cell-based
# Protocol: as §3
# [16] = tested on: Issatchenkia orientalis ATCC 60585; assay: as above; assay type: cell-based
# Protocol: as §3
# [17] = tested on: Candida lambica ATCC 38617; assay: as above; assay type: cell-based
# Protocol: as §3, §2
# [18] = tested on: Candida sorbosivorans ATCC 38619; assay: as above; assay type: cell-based
# Protocol: as §3, §2
# [19] = tested on: Issatchenkia orientalis ATCC 24210; assay: as above; assay type: cell-based
# Protocol: as §3, §2
# [20] = tested on: Issatchenkia orientalis ATCC PTA-6658; assay: as above; assay type: cell-based
# Protocol: as §3, §2
# [21] = tested on: Issatchenkia orientalis CD1822; assay: as above; assay type: cell-based
# Protocol: as §3, §2
# [22] = tested on: Saccharomyces bulderi ATCC MYA-404; assay: as above; assay type: cell-based
# Protocol: as §3, §2
# [23] = tested on: seven wild-type yeast strains; assay: Range finding: overnight growth in microtiter wells with malate; assay type: cell-based; conditions: YPD, 30° C.
# Protocol: The range of malate concentrations to utilize in primary screening procedures was determined by evaluating the ability of seven wild-type yeast strains (Candida sonorensis, Candida zemplinina, I. orientalis strain PTA-6658, I. orientalis strain CD1822, Kluyveromyces lactis, K. marxianus, S. cerevisiae strain CENPK 113-7D) to grow on media containing varying levels of malate. Cells were streaked onto YPD plates and grown overnight. A cell slurry with an OD600 of around 4 was made in YPD media, pH 3.0, and this slurry was used to inoculate microtiter wells containing various concentrations of malate to an OD600 of 0.05. Plates were covered with a gas permeable membrane and incubated in a 30° C./300 rpm shaker overnight. The optical densities of each well were measured at a wavelength of 600 nm in a GENios model plate reader (Tecan), and plates were observed visually for growth. The highest malate concentration that one or more of the strains grew in (350 g/L) was chosen as the upper range for primary screening procedure.
# [24] = tested on: wild-type yeast strains; assay: Additional primary screen: growth on microtiter plates with malate; assay type: cell-based; conditions: ten strains of 24 re-tested; 200 g/L malate, pH 2.85, microtiter plates, overnight
# Protocol: For the primary screening procedure, 91 wild-type yeast strains were screened for growth on microtiter plates at pH 2.85 with 0 g/L, 150 g/L, 300 g/L, or 350 g/L pH 2.85 malate using the same protocol used for range finding. A fresh YPD plate was used for each strain, and a slurry with an OD600 of around 4 was made in YPD media, pH 3.0. The slurry was used to inoculate each well to an OD600 of 0.05. Plates were covered with a gas permeable membrane, and incubated in a 30° C./300 rpm shaker overnight. Optical densities of each well were measured at 600 nm in a GENios model plate reader, and plates were observed visually for growth. To account for plate-to-plate variability, I. orientalis PTA-6658 was included on all plates as a control. […] As such, an additional screen was added wherein the 24 strains that grew as well or better than the I. orientalis control strain were re-tested. […] These ten strains were advanced to the secondary screens. […] However, it is possible that one or more such strains could nonetheless meet the minimum requirements for a commercially viable fermentation process.
# [25] = malate, slope of growth rates against acid concentration, scale 0 to 1
# [26] = Candida sorbosivorans ATCC 24120, scale 0 to 1
# [27] = Candida sorbosivorans ATCC 38619, YPD, 30° C.
smiles,measurement,setting,value
"O=C(O)/C=C/C(=O)O [Fumarate, trans-butanedioic acid]",water solubility,[1],4.28 g/kg H2O
CCOS(C)(=O)=O [ethane methyl sulfonate],cells killed,[2],around 65%
"O=C(O)CC(O)C(=O)O (stereo not drawn) [malate, hydroxybutanedioc acid]",Growth rate 200 g/L malate (pH 2.85),"[3]; YPD, 30° C.",0.42 h^−1
same,Normalized grade: Growth rate slope,[3]; [25],1.00
same,Normalized grade: Growth rate 200 g/L malate (pH 2.85),[3]; scale 0 to 1,0.82
same,Growth rate 200 g/L malate (pH 2.85),"[4]; YPD, 30° C.",0.34 h^−1
same,Normalized grade: Growth rate slope,[4]; [25],0.00
same,Normalized grade: Growth rate 200 g/L malate (pH 2.85),[4]; scale 0 to 1,0.09
same,Growth rate 200 g/L malate (pH 2.85),"[5]; YPD, 30° C.",0.39 h^−1
same,Normalized grade: Growth rate slope,[5]; [25],0.92
same,Normalized grade: Growth rate 200 g/L malate (pH 2.85),[5]; scale 0 to 1,0.55
same,Growth rate 200 g/L malate (pH 2.85),"[6]; YPD, 30° C.",0.36 h^−1
same,Normalized grade: Growth rate slope,[6]; [25],0.54
same,Normalized grade: Growth rate 200 g/L malate (pH 2.85),[6]; scale 0 to 1,0.27
same,Growth rate 200 g/L malate (pH 2.85),"[7]; YPD, 30° C.",0.33 h^−1
same,Normalized grade: Growth rate slope,[7]; [25],0.41
same,Normalized grade: Growth rate 200 g/L malate (pH 2.85),[7]; scale 0 to 1,0.00
same,Normalized grade: Growth rate slope,"[8]; Candida sorbosivorans ATCC 24120, malate, slope of growth rates against acid concentration, scale 0 to 1",0.92
same,Normalized grade: Growth rate 200 g/L malate (pH 2.85),[8]; [26],0.36
same,Growth rate 200 g/L malate (pH 2.85),[8]; [27],0.37 h^−1
same,Growth rate 200 g/L malate (pH 2.85),"[9]; YPD, 30° C.",0.39 h^−1
same,Normalized grade: Growth rate slope,[9]; [25],0.56
same,Normalized grade: Growth rate 200 g/L malate (pH 2.85),[9]; scale 0 to 1,0.55
same,Growth rate 200 g/L malate (pH 2.85),"[10]; YPD, 30° C.",0.44 h^−1
same,Normalized grade: Growth rate slope,[10]; [25],0.67
same,Normalized grade: Growth rate 200 g/L malate (pH 2.85),[10]; scale 0 to 1,1.00
same,Growth rate 200 g/L malate (pH 2.85),"[11]; YPD, 30° C.",0.42 h^−1
same,Normalized grade: Growth rate slope,[11]; [25],0.67
same,Normalized grade: Growth rate 200 g/L malate (pH 2.85),[11]; scale 0 to 1,0.82
same,Growth rate 200 g/L malate (pH 2.85),"[12]; YPD, 30° C.",0.39 h^−1
same,Normalized grade: Growth rate slope,[12]; [25],1.00
same,Normalized grade: Growth rate 200 g/L malate (pH 2.85),[12]; scale 0 to 1,0.55
same,Glucose consumption rate 200 g/L malate (pH 2.85),"[13]; Candida guilliermondii ATCC 20118, YPD, 30° C.",1.9 g L^−1 h^−1
same,Normalized grade: Glucose consumption rate 200 g/L malate (pH 2.85),"[13]; Candida guilliermondii, scale 0 to 1",0.30
same,Glucose consumption rate 200 g/L malate (pH 2.85),"[14]; YPD, 30° C.",1.85 g L^−1 h^−1
same,Normalized grade: Glucose consumption rate 200 g/L malate (pH 2.85),[14]; scale 0 to 1,0.28
same,Glucose consumption rate 200 g/L malate (pH 2.85),"[15]; YPD, 30° C.",1.3 g L^−1 h^−1
same,Normalized grade: Glucose consumption rate 200 g/L malate (pH 2.85),[15]; scale 0 to 1,0.00
same,Glucose consumption rate 200 g/L malate (pH 2.85),"[16]; YPD, 30° C.",2.7 g L^−1 h^−1
same,Normalized grade: Glucose consumption rate 200 g/L malate (pH 2.85),[16]; scale 0 to 1,0.70
same,Glucose consumption rate 200 g/L malate (pH 2.85),"[17]; YPD, 30° C.",3.2 g L^−1 h^−1
same,Normalized grade: Glucose consumption rate 200 g/L malate (pH 2.85),[17]; scale 0 to 1,0.95
same,Normalized grade: Glucose consumption rate 200 g/L malate (pH 2.85),[18]; [26],0.05
same,Glucose consumption rate 200 g/L malate (pH 2.85),[18]; [27],1.4 g L^−1 h^−1
same,Glucose consumption rate 200 g/L malate (pH 2.85),"[19]; YPD, 30° C.",3.1 g L^−1 h^−1
same,Normalized grade: Glucose consumption rate 200 g/L malate (pH 2.85),[19]; scale 0 to 1,0.90
same,Glucose consumption rate 200 g/L malate (pH 2.85),"[20]; YPD, 30° C.",3.3 g L^−1 h^−1
same,Normalized grade: Glucose consumption rate 200 g/L malate (pH 2.85),[20]; scale 0 to 1,1.00
same,Glucose consumption rate 200 g/L malate (pH 2.85),"[21]; YPD, 30° C.",3.3 g L^−1 h^−1
same,Normalized grade: Glucose consumption rate 200 g/L malate (pH 2.85),[21]; scale 0 to 1,1.00
same,Glucose consumption rate 200 g/L malate (pH 2.85),"[22]; YPD, 30° C.",3.15 g L^−1 h^−1
same,Normalized grade: Glucose consumption rate 200 g/L malate (pH 2.85),[22]; scale 0 to 1,0.93
same,highest malate concentration that one or more of the strains grew in,[23],350 g/L
same,optical density relative to the same strain in 0 g/L malic acid,[24],greater than or equal to 50%
